Source: patent publication US9616140B2, “Fluorescent phospholipid ether compounds, compositions, and methods of use” (Cellectar, Inc., priority 2009, dated 2017)

What was measured:
[1] = test system: Caki-2 (clear cell carcinoma) cells; experiment: Intensity of signal emitted by CLR1501, confocal microscopy; assay type: cell-based; details: 5 μM CLR1501, 24 hours
Experimental: (§1) Similar experiments were performed on several other cancerous cell lines: colorectal adenocarcinoma, uterine carcinoma, pancreatic carcinoma, ovarian adenocarcinoma, glioblastoma, clear cell carcinoma, and prostate adenocarcinoma. For comparison reasons, normal fibroblast cells were incubated with CLR1501.
(§2) Briefly, cells were plated overnight in micro slides VI (Ibidi, Verona, Wis.). The next day the cells were incubated with 5 μM of CLR1501 for 24 hours at 37° C. The cells were washed with PBS before the images were taken. The images were obtained using Nikon A1R confocal microscope. The length of exposure and intensity of the laser were similar among samples. CLR1501 was obtained using Alexa Fluor 488 filters (488 nm excitation-520 nm emission wavelength).
(§3) Table 1 illustrates intensity of signal emitted by CLR1501 in cancerous cell lines versus normal cells.

[2] = test system: NFA (normal fibroblast cells); experiment: as above; assay type: cell-based; details: 5 μM CLR1501, 24 hours
Experimental: as §1, §2, §3

[3] = test system: Ovcar-3 (ovarian adenocarcinoma) cells; experiment: as above; assay type: cell-based; details: 5 μM CLR1501, 24 hours
Experimental: as §1, §2, §3

[4] = test system: PC3 (prostate adenocarcinoma) cells; experiment: as above; assay type: cell-based; details: 5 μM CLR1501, 24 hours
Experimental: as §1, §2, §3

[5] = test system: Panc-1 (pancreatic carcinoma) cells; experiment: as above; assay type: cell-based; details: 5 μM CLR1501, 24 hours
Experimental: as §1, §2, §3

[6] = test system: tumor cell lines (HCT-116, MES SA/DX-5, Mia Paca-2, Panc-1, Ovcar-3, U-87MG, Caki-2, PC3); experiment: Uptake of CLR1501 in cancerous cell lines versus normal cells; assay type: cell-based
Experimental: as §1, §2

[7] = test system: skin melanoma (A375) cells; experiment: Distribution of CLR1501 in cancer skin cells; assay type: cell-based
Experimental: To study the distribution of CLR1501 in cancer skin cells versus normal skin cells, CLR1501 was introduced into skin melanoma (A375) and normal skin (704sk) cells, purchased from ATCC. Both cells were maintained at 37° C. in DMEM media supplemented with 10% FBS and 5% CO2. Before imaging, the cells were removed from flasks with 0.25% trypsin and were allowed to grow overnight on the slides (Ibidi, microslides VI flat, Catalog No: 80626). […] CRL1501 was formulated with 0.4% of Polysorbate 20, 2% of ethanol and saline. After washing thoroughly with PBS, the cells were imaged using Bio-Rad Radiance 2100 MP Rainbow with 1 second exposure time.

[8] = test system: normal skin (704sk) cells; experiment: Distribution of CLR1501 in normal skin cells; assay type: cell-based; details: 7.5 μM, 24 hours
Experimental: To study the distribution of CLR1501 in cancer skin cells versus normal skin cells, CLR1501 was introduced into skin melanoma (A375) and normal skin (704sk) cells, purchased from ATCC. Both cells were maintained at 37° C. in DMEM media supplemented with 10% FBS and 5% CO2. Before imaging, the cells were removed from flasks with 0.25% trypsin and were allowed to grow overnight on the slides (Ibidi, microslides VI flat, Catalog No: 80626). The next day, the media was gently replaced with Phosphate Buffered Saline (PBS) and the cells were incubated with 7.5 μM of CLR1501 on DMEM media for 24 hours. CRL1501 was formulated with 0.4% of Polysorbate 20, 2% of ethanol and saline. After washing thoroughly with PBS, the cells were imaged using Bio-Rad Radiance 2100 MP Rainbow with 1 second exposure time.

[9] = test system: glioblastoma cells (U87MG); experiment: Incubation of glioblastoma cells with CLR1501 and co-staining; assay type: cell-based; details: 48 hours
Experimental: The following co-stained dyes were used: Hoechst 33342 (1 μg/mL) (nucleus; blue color), Mitotracker (25 nM) (mitochondria, red color) and Blue-White DPX (100 nM) (Endoplasmic Reticulum (ER), blue color) were diluted in PBS and added to the cells for 15 minutes. The cells were washed with PBS and imaged with Bio-Rad Radiance 2100 MP Rainbow.

[10] = test system: NFA cells; experiment: Co-culture NFA/PC3, co-staining with nucleus stain and mitochondria marker; assay type: cell-based; details: NFA (normal), 5 μM, 24 hours
Experimental: (§4) Briefly, NFA and PC3 cell lines were co-cultured overnight on micro slide VI (Ibidi, Verona, Wis.). The next day, the cells were incubated with 5 μM of CLR1501 for 24 hours at 37° C. in complete media. The next day after washing with PBS, the cells were co-stained with nucleus stain (Hoechst 33342) and mitochondria marker (Mitotracker), (Invitrogen, Carlsbad, Calif.). The cells were observed using Nikon A1R confocal microscope. CLR1501 was excited and detected using Alexa-Fluor 488 filter, while nucleus stain and mitochondria stain were excited and detected using DAPI filter and Texas-Red filter, respectively.

[11] = test system: PC3 cells; experiment: as above; assay type: cell-based; details: 5 μM, 24 hours
Experimental: as §4

[12] = test system: Caki-2 cells; experiment: Co-culture NFA/Caki-2, co-staining with nucleus stain and lysosome marker; assay type: cell-based; details: 5 μM, 24 hours
Experimental: as §4, with “and Caki-2” for “and PC3”, “and lysosome” for “and mitochondria”, “marker (Lyso-tracker),” for “marker (Mitotracker),”, “488 filter” for “488 filter,”, “DAPI” for “DAPI filter”

[13] = test system: NFA cells; experiment: as above; assay type: cell-based; details: co-culture with Caki-2, 5 μM, 24 hours
Experimental: as §4, with “and Caki-2” for “and PC3”, “and lysosome” for “and mitochondria”, “marker (Lyso-tracker),” for “marker (Mitotracker),”, “488 filter” for “488 filter,”, “DAPI” for “DAPI filter”

[14] = test system: Panc-1 (pancreatic carcinoma) tumors; experiment: In vivo fluorescence imaging of CLR1501 distribution in Panc-1 tumor-bearing athymic nude mice; set-up: species or system mouse
Experimental: Athymic nude mice (Hsd: Athymic Nude-Fox1^nu), inoculated with Panc-1 (Pancreatic carcinoma), were injected with 150 μL of 6 mg/mL CLR1501 formulated in 0.4% Polysorbate 20, 2% ethanol and saline 24 hour and 96 hours prior to imaging. The fluorescence images were obtained using a Kodak In-Vivo Multispectral System FX. The system provides multispectral tuning of excitation light which is able to separate signals from the dye and from the body autofluorescence. Mice were anesthetized by inhalation of isofluorane. The dyes were excited at 570 nm. […] The mouse was inoculated with 1×10^6 Panc-1 cells (human pancreatic carcinoma). […] CLR1501 was excited at 480 and emitted at 520 nm. The intensity was monitored at 24 and 96 hours using Kodak in vivo imaging system (Carestream Health, Woodbridge, Conn.).

[15] = test system: Panc-1 cells (human pancreatic carcinoma); experiment: Retention of CLR1501 in pre-incubated Panc-1 cells inoculated into athymic nude mouse; assay type: in vivo; details: Panc-1 cells incubated 4 hours, then inoculated
Experimental: FIG. 10 depicts tumor co-localization of CLR1501 in athymic nude mouse. […] The mouse was inoculated with 1×10^6 Panc-1 cells (human pancreatic carcinoma) which were incubated with CLR1501 or Kodak X-Sight 761 or both CLR1501 and Kodak X-Sight 761 for 4 hours. The cells were harvested and inoculated in different spots. The signals from each dye were obtained using Kodak in vivo imaging system (Carestream Health, Woodbridge, Conn.). CLR1501 was excited at 480 and emitted at 520 nm while the Kodak X-Sight was excited at 750 and emitted at 830 nm.

[16] = test system: xenograft and spontaneous primary and metastatic human and rodent tumor models; details: cited from earlier work
[17] = injected 96 hours prior to imaging

Question: Which “Relative intensity to normal cells” value [1] does the source give for `C[N+](C)(C)CCOP(=O)([O-])OCCCCCCCCCCCCCCCCCCc1ccc(C2=C3C=CC=[N+]3[B-](F)(F)n3cccc32)cc1` [CLR1501, 18-[p-(4,4-difluoro-4-bora-3a,4a-diaza-s-indacene-8-yl)-phenyl]-octadecyl phosphocholine] here?
Answer: 10.11

Question: What about the Average grey intensity ([1]; 37° C.) of the same compound?
Answer: 151.56

Question: What about the “Relative intensity to normal cells” value [2] of the same compound?
Answer: 1

Question: And the Average grey intensity ([2]; 37° C.)?
Answer: 14.99

Question: What about the “Relative intensity to normal cells” value [3] of the same compound?
Answer: 6.2

Question: And the Average grey intensity ([3]; 37° C.)?
Answer: 92.86

Question: And the “Relative intensity to normal cells” value [4]?
Answer: 12.01

Question: What about the Average grey intensity ([4]; 37° C.) of the same compound?
Answer: 180.04

Question: What about the “Relative intensity to normal cells” value [5] of the same compound?
Answer: 9.58

Question: And the Average grey intensity ([5]; 37° C.)?
Answer: 143.65

Question: And the “Uptake in cancerous cell lines” value ([6]; FIGS. 2c-2i and 2k-2l, 5 μM, 24 hours)?
Answer: significant uptake

Question: What about the “Penetration into the nucleus” value ([6]; the in vitro experiments overall) of the same compound?
Answer: does not penetrate inside of the nucleus

Question: What about the “Uptake by tumor cells relative to normal fibroblast cells” value ([6]; tumor cells of Table 1 vs NFA) of the same compound?
Answer: 6-12 times

Question: And the Cellular distribution ([7]; 7.5 μM, 24 hours)?
Answer: internalization of CLR1501 into numerous fluorescent vesicles that are scattered throughout the cytoplasm

Question: What about the “Early time uptake profile” value ([7]; half an hour after incubation) of the same compound?
Answer: signals are thin and limited at the plasma membrane

Question: What about the “Early time uptake profile” value ([7]; one hour after incubation) of the same compound?
Answer: signals are not concentrated solely in the plasma membrane: intracellular structures are also observed

Question: What about the Cellular distribution [8] of the same compound?
Answer: transported to the lysosomes where it was degraded

Question: What about the “Site of accumulation in cells” value [9] of the same compound?
Answer: mostly accumulated in cytoplasm of the cells

Question: What about the Co-localization with organelles ([9]; Mitotracker, Blue-White DPX) of the same compound?
Answer: co-localized with mitochondria and ER

Question: And the Co-localization with nucleus [10]?
Answer: not co-localized with nucleus

Question: What about the Co-localization with nucleus ([11]; PC3 (tumor)) of the same compound?
Answer: not co-localized with nucleus

Question: And the Co-localization with mitochondria ([11]; PC3)?
Answer: co-localized with mitochondria

Question: And the Co-localization with nucleus ([12]; Caki-2 (tumor))?
Answer: not co-localized with nucleus

Question: And the Co-localization with lysosome ([12]; Caki-2)?
Answer: co-localized with lysosome

Question: And the Co-localization with nucleus ([13]; NFA (normal))?
Answer: not co-localized with nucleus

Question: What about the Co-localization with lysosome ([13]; NFA) of the same compound?
Answer: minimally with NFA

Question: What about the “Tumor co-localization over time” value ([14]; 1 mg in 0.15 mL, monitored at 24 and 96 hours, de-skinned) of the same compound?
Answer: accumulated in tumor site, while it cleared out from the rest of normal organs

Question: And the “Distribution of fluorescence signal in vivo” value ([14]; injected 150 μL of 6 mg/mL, 24 and 96 hours prior to imaging)?
Answer: found mostly in the tumors

Question: What about the “Accumulation in the tumor” value [14, 17] of the same compound?
Answer: more pronounced

Question: And the “Retention of the dye in other tissues” value [14, 17]?
Answer: tremendously reduced

Question: And the “Retention in cancer cells after inoculation” value [15]?
Answer: continues to be retained in these cells after in vivo subcutaneous injection

Question: Which “Duration of selective retention in tumors” value ([16]; mouse models) does the source give for `C[N+](C)(C)CCOP(=O)([O-])OCCCCCCCCCCCCCCCCCCc1ccc(I)cc1` [NM404, 18-p-(iodophenyl)-octadecyl phosphocholine] here?
Answer: > 80 days

Question: What about the “Tumor models showing selective retention” value ([16]; xenograft and spontaneous primary and metastatic tumor models) of the same compound?
Answer: 37 out of 37
